Results reported in patent publication US4738929A, “Purified culture of streptomyces galanosa” (Warner-Lambert Company, priority 1986, dated 1988).
Converted amounts (≈) assume the structure as drawn.

Assays:
[1] = test system: Streptococcus faecalis; assay: Microtiter dilution MIC, Streptococcus faecalis; type: cell-based; settings: Enterococcus faecalis; Mueller-Hinton broth, 37° C., 16-24 hours; read-out: Minimal Inhibitory Concentration
Description: (§1) The compounds of the present invention and their pharmaceutically acceptable salts are useful as antimicrobial agents. The antimicrobial activity of the representative examples of compounds in accordance with the present invention against five species of gram-negative bacteria, seven species of gram-positive bacteria, four species of yeast, and two species of fungi were determined using the microtiter dilution technique. This method is described by T. B. Conrath, "Handbook of Microtiter Procedures," Dynatech Corp., Cambridge, Mass., USA (1972); and T. L. Gavan et al, "Microdilution Test Procedures," in Manual of Clinical Microbiology, E. H. Lennette, Ed., American Soc. for Microbiol., Washington, D.C., U.S.A. (1980).
(§2) Each agent is suspended in a nonaqueous solvent for several minutes to sterilize the compound or, if the compound is completely soluble in water, the aqueous solution is sterilized by passage through a 0.2-0.45 micrometer membrane filter.
(§3) Each well of a sterile 96-well microdilution tray is filled under aseptic conditions with 0.1 ml of Mueller-Hinton broth (for antibacterial tests), or yeast extract-peptone-dextrose or buffered supplemented yeast nitrogen base (for tests with yeasts or fungi).
(§4) […] of the test compound solution is added to each of the eight wells in the first row of the tray. A microdilutor apparatus is used to simultaneously mix the contents of these wells and to transfer aliquots to each succeeding row of cells to obtain a range of serially diluted solutions. The last row of wells is untreated and serves as a control.
(§5) Each well containing broth and test compound is inoculated with about ten microliters of inoculum of the test microorganism. One well in the last row of wells (which is free of test compound) is not inoculated and is used as a sterility control The trays are sealed and incubated at 37° C. for 16-24 hours (for bacteria) or at 28° C. for 36-48 hours (yeasts or fungi). During incubation, the inoculated medium is shaken at 100-140 rpm to increase contact between the microorganism cells and test compounds.
(§6) After the incubation period, each plate is evaluated by determining the lowest concentration of test compound required to inhibit the growth of the microorganism and recorded as a minimal inhibitory concentration (MIC).

[2] = test system: Saccharomyces cerevisiae; assay: Microtiter dilution MIC, Saccharomyces cerevisiae; type: cell-based; settings: yeasts or fungi, 28° C., 36-48 hours, read-out: Minimal Inhibitory Concentration
Description: as §1, §2, §3, §4, §5, §6

[3] = test system: Branhamella catarrhalis; assay: Microtiter dilution MIC, Branhamella catarrhalis; type: cell-based; settings: Moraxella catarrhalis; Mueller-Hinton broth, 37° C., 16-24 hours; read-out: Minimal Inhibitory Concentration
Description: as §1, §2, §3, §4, §5, §6

[4] = test system: Streptococcus pyogenes; assay: Microtiter dilution MIC, Streptococcus pyogenes; type: cell-based; settings: Mueller-Hinton broth, 37° C., 16-24 hours, read-out: Minimal Inhibitory Concentration
Description: as §1, §2, §3, §4, §5, §6

[5] = test system: Rhizopus japonicus; assay: Microtiter dilution MIC, Rhizopus japonicus; type: cell-based; settings: yeasts or fungi, 28° C., 36-48 hours, read-out: Minimal Inhibitory Concentration
Description: as §1, §2, §3, §4, §5, §6

[6] = test system: P388 leukemia cell line; assay: In vivo antineoplastic activity against transplanted P388 leukemia in mice; settings: Days 1-9
Description: The in vivo antineoplastic activity of representative compounds of the present invention against the transplanted P388 leukemia cell line in mice was determined in accordance with the protocol given in Geran et al, cited above. The mice were infected intraperitoneally on Day 0 and then administered the indicated doses of the test compounds on Days 1-9.

[7] = test system: Escherichia coli (PD-04863); assay: Microtiter dilution MIC, Escherichia coli (PD-04863); type: cell-based; settings: Mueller-Hinton broth, 37° C., 16-24 hours, read-out: Minimal Inhibitory Concentration
Description: as §1, §2, §3, §4, §5, §6

[8] = test system: Torulopsis albida; assay: Microtiter dilution MIC, Torulopsis albida; type: cell-based; settings: Naganishia albida; yeasts or fungi, 28° C., 36-48 hours; read-out: Minimal Inhibitory Concentration
Description: as §1, §2, §3, §4, §5, §6

[9] = test system: Micrococcus luteus; assay: Microtiter dilution MIC, Micrococcus luteus; type: cell-based; settings: Mueller-Hinton broth, 37° C., 16-24 hours, read-out: Minimal Inhibitory Concentration
Description: as §1, §2, §3, §4, §5, §6

[10] = test system: Bacillus cereus; assay: Microtiter dilution MIC, Bacillus cereus; type: cell-based; settings: Mueller-Hinton broth, 37° C., 16-24 hours, read-out: Minimal Inhibitory Concentration
Description: as §1, §2, §3, §4, §5, §6

[11] = test system: Mucor paraciticus; assay: Microtiter dilution MIC, Mucor paraciticus; type: cell-based; settings: yeasts or fungi, 28° C., 36-48 hours, read-out: Minimal Inhibitory Concentration
Description: as §1, §2, §3, §4, §5, §6

[12] = test system: Staphylococcus aureus; assay: Microtiter dilution MIC, Staphylococcus aureus; type: cell-based; settings: Mueller-Hinton broth, 37° C., 16-24 hours, read-out: Minimal Inhibitory Concentration
Description: as §1, §2, §3, §4, §5, §6

[13] = test system: Streptococcus pneumoniae; assay: Microtiter dilution MIC, Streptococcus pneumoniae; type: cell-based; settings: Mueller-Hinton broth, 37° C., 16-24 hours, read-out: Minimal Inhibitory Concentration
Description: as §1, §2, §3, §4, §5, §6

[14] = test system: Bacillus megaterium; assay: Microtiter dilution MIC, Bacillus megaterium; type: cell-based; settings: Priestia megaterium; Mueller-Hinton broth, 37° C., 16-24 hours; read-out: Minimal Inhibitory Concentration
Description: as §1, §2, §3, §4, §5, §6

[15] = test system: Pseudomonas aeruginosa; assay: Microtiter dilution MIC, Pseudomonas aeruginosa; type: cell-based; settings: Mueller-Hinton broth, 37° C., 16-24 hours, read-out: Minimal Inhibitory Concentration
Description: as §1, §2, §3, §4, §5, §6

[16] = test system: Alcaligenes viscolactis; assay: Microtiter dilution MIC, Alcaligenes viscolactis; type: cell-based; settings: Mueller-Hinton broth, 37° C., 16-24 hours, read-out: Minimal Inhibitory Concentration
Description: as §1, §2, §3, §4, §5, §6

[17] = test system: L1210 murine leukemia cell line; assay: Cytotoxic activity against L1210 murine leukemia in vitro; type: cell-based; settings: Mus musculus, 50% inhibition of growth, duplicate tests
Description: The antineoplastic activities of representative compounds of the present invention against the L1210 murine leukemia cell line in vitro were determined using the methods detailed by R. I. Geran et al, "Protocols for Screening Chemical Agents and Natural Products Against Animal Tumors and Other Biological Systems," 3rd Edition, Cancer Chemotherapy Reports, Part 3, Vol. 3, pages 1-87 (1972) which is incorporated herein by reference.
The IC50 values are the concentration of compound required to produce 50% inhibition of growth of the cell line.

[18] = test system: Rhodotorula aurantiaca; assay: Microtiter dilution MIC, Rhodotorula aurantiaca; type: cell-based; settings: Buckleyzyma aurantiaca; yeasts or fungi, 28° C., 36-48 hours; read-out: Minimal Inhibitory Concentration
Description: as §1, §2, §3, §4, §5, §6

[19] = test system: Schizosaccharomyces pombe; assay: Microtiter dilution MIC, Schizosaccharomyces pombe; type: cell-based; settings: yeasts or fungi, 28° C., 36-48 hours, read-out: Minimal Inhibitory Concentration
Description: as §1, §2, §3, §4, §5, §6

[20] = test system: Salmonella typhimurium; assay: Microtiter dilution MIC, Salmonella typhimurium; type: cell-based; settings: Salmonella enterica, Mueller-Hinton broth, 37° C., 16-24 hours, read-out: Minimal Inhibitory Concentration
Description: as §1, §2, §3, §4, §5, §6

Work on `Cc1c(O)c(C=O)c2nc3c(O)ccc(C(=O)NCCCN(C)C)c3nc2c1O` [Example 18, N-[3-(dimethylamino)propyl]-6-formyl-4,7,9-trihydroxy-8-methyl-1-phenazinecarboxamide] yielded an MIC [1] of 37 µg/mL (≈ 92.9 µM), an MIC [2] of 111 µg/mL (≈ 279 µM) and an MIC [3] of 12.3 µg/mL (≈ 30.9 µM). For the same molecule, the MIC [4] was 37 µg/mL (≈ 92.9 µM), the MIC [5] was 37 µg/mL (≈ 92.9 µM) and the “% T/C” value ([6]; 25 mg/kg/injection) was 106%. For the same molecule, the “% T/C” value ([6]; 50 mg/kg/injection) was 123%, the “% T/C” value ([6]; 100 mg/kg/injection) was 132% and the MIC [7] was 37 µg/mL (≈ 92.9 µM). For the same molecule, the MIC [8] was 37 µg/mL (≈ 92.9 µM), the MIC [9] was 12.3 µg/mL (≈ 30.9 µM) and the MIC [10] was 12.3 µg/mL (≈ 30.9 µM). For the same molecule, the MIC [11] was 37 µg/mL (≈ 92.9 µM), the MIC [12] was 37 µg/mL (≈ 92.9 µM) and the MIC [13] was 37 µg/mL (≈ 92.9 µM). For the same molecule, the MIC [14] was 37 µg/mL (≈ 92.9 µM), the MIC [15] was greater than 1000 µg/mL and the MIC [16] was 12.3 µg/mL (≈ 30.9 µM). For the same molecule, the IC50 [17] was 0.24 µg/mL (≈ 0.602 µM), the MIC [18] was 37 µg/mL (≈ 92.9 µM) and the MIC [19] was 37 µg/mL (≈ 92.9 µM). For the same molecule, the MIC [20] was 111 µg/mL (≈ 279 µM).
